Measured values: US7253171B2 (Laboratorios Almirall, S.A., priority 2001, dated 2007)

These compounds were tested against T1, α4β1 integrin (Homo sapiens, UniProt P05556+P13612) (assay: U-937 cell adhesion to human VCAM-1 (α4β1 binding assay)). Settings: U-937 cells, immobilized human VCAM-1; read-out: IC50 values in the α4β1 assays.
T1 construct: endogenous in cells; host or cells: U-937 cells
Format: cell-based
Experimental: U-937 Cell Adhesion to Human VCAM-1 (α4β1 Binding Assay)
Recombinant human soluble VCAM-1 (R&D Systems Ltd., UK) at 2 μg/ml in PBS was immobilized overnight onto microtiter plates. Unbound VCAM-1 was washed away and VCAM-1 coated plates were blocked with bovine serum albumin (BSA) 2,5% in PBS for 2 h at room temperature. U-937 cells were labelled with 5-carboxyfluorescein diacetate (5-CFDA) in order to detect bound cells to the wells. Test compounds were added to the wells followed by U-937 cells and the adhesion assay was performed for 1 h at 37° C. Following incubation, the wells were emptied and washed. Inhibition of binding was measured by the quantity of fluorescence bound to the plate for each of the various concentrations of test compound, as well as for controls containing no test compound, with a Cytofluor 2300 fluorescence measurement system.

T1 sequence (P13612 34-1032): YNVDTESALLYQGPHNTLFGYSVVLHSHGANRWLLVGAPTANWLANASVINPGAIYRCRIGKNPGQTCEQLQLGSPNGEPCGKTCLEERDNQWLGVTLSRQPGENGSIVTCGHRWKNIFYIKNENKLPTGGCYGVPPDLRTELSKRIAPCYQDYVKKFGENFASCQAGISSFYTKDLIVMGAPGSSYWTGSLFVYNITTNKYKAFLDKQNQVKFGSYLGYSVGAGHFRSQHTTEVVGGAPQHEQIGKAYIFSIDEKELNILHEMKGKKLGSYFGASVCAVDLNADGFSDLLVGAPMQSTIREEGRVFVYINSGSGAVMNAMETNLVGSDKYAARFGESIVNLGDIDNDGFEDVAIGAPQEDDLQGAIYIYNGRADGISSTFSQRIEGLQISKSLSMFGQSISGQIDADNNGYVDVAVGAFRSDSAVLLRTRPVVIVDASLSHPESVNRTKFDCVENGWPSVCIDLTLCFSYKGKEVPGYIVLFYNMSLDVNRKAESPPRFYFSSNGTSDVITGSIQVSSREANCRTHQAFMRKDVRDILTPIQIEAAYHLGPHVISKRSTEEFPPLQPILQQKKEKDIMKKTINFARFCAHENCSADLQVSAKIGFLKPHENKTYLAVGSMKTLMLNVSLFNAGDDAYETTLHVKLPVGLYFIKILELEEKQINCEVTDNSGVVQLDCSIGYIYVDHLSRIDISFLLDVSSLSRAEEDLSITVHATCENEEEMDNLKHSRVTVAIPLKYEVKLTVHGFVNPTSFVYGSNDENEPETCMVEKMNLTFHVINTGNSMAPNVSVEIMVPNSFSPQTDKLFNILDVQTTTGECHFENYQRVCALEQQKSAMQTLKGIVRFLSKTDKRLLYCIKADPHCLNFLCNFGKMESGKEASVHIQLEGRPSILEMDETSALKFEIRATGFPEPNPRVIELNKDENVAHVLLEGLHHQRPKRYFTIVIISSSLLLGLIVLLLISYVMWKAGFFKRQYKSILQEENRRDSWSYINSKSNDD
T1 sequence (P05556 21-798): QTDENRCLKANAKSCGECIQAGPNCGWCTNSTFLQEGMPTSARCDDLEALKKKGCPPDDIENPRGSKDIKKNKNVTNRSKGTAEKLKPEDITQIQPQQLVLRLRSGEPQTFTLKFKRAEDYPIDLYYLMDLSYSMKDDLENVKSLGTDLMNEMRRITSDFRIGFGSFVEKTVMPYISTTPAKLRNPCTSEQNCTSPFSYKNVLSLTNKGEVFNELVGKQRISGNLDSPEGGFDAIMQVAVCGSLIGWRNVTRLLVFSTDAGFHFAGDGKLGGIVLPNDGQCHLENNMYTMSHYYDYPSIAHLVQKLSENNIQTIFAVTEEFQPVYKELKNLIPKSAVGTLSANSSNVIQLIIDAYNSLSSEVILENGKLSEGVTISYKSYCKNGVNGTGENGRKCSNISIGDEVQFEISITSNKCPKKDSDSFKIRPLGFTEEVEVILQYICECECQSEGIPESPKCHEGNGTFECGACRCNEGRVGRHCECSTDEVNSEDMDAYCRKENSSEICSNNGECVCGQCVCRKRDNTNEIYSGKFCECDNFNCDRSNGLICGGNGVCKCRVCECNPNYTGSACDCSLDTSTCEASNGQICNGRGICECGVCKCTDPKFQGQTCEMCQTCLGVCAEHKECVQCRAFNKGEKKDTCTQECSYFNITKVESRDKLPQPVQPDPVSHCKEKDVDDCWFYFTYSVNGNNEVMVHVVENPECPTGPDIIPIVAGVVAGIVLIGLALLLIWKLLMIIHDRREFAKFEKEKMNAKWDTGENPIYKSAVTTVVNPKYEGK

SMILES	IC50 [nM]
CN(C(=O)c1ccccc1NC(=O)N[C@@H](Cc1ccc(NC(=O)c2c(Cl)cccc2Cl)cc1)C(=O)O)C1CCCCC1 [Example 2]	< 100
CCCCN(Cc1cccs1)S(=O)(=O)c1ccccc1NC(=O)N[C@@H](Cc1ccc(NC(=O)c2c(Cl)cccc2Cl)cc1)C(=O)O [Example 20, (S)-2-{3-[2-(Butylthiophen-2-ylmethylsulfamoyl)phenyl]ureido}-3-[4-(2,6-dichlorobenzoylamino)phenyl]propionic acid]	< 100
O=C(Nc1ccccc1S(=O)(=O)NCc1cccs1)N[C@@H](Cc1ccc(NC(=O)c2c(Cl)cccc2Cl)cc1)C(=O)O [Example 21, (S)-3-[4-(2,6-Dichlorobenzoylamino)phenyl]-2-(3-{2-[(thiophen-2-ylmethyl)sulfamoyl]phenyl}ureido)propionic acid]	< 100
O=C(Nc1ccccc1S(=O)(=O)Nc1ccccc1)N[C@@H](Cc1ccc(NC(=O)c2c(Cl)cccc2Cl)cc1)C(=O)O [Example 22, (S)-3-[4-(2,6-Dichlorobenzoylamino)phenyl]-2-[3-(2-phenylsulfamoylphenyl)ureido]propionic acid]	< 100
CN(C(=O)N[C@@H](Cc1ccc(NC(=O)c2c(Cl)cccc2Cl)cc1)C(=O)O)c1ccccc1C(=O)N(C)C1CCCCC1 [Example 32]	< 100
O=C(Nc1ccccc1S(=O)(=O)c1ccccc1)N[C@@H](Cc1ccc(NC(=O)c2c(Cl)cccc2Cl)cc1)C(=O)O [Example 36, (S)-2-[3-(2-Benzenesulfonylphenyl)ureido]-3-[4-(2,6-dichlorobenzoylamino)phenyl]propionic acid]	< 100
O=C(Nc1ccccc1Sc1ccccc1)N[C@@H](Cc1ccc(NC(=O)c2c(Cl)cccc2Cl)cc1)C(=O)O [Example 44, (S)-3-[4-(2,6-Dichlorobenzoylamino)phenyl]-2-[3-(2-phenylsulfanylphenyl)ureido]propionic acid]	< 100
O=C(Nc1cc(Cl)ccc1S(=O)(=O)c1ccccc1)N[C@@H](Cc1ccc(NC(=O)c2c(Cl)cccc2Cl)cc1)C(=O)O [Example 48, (S)-2-[3-(2-Benzenesulfonyl-5-chlorophenyl)ureido]-3-[4-(2,6-dichlorobenzoylamino)phenyl]propionic acid]	< 100
Cc1ccc(S(=O)(=O)c2ccc(Cl)c(NC(=O)N[C@@H](Cc3ccc(NC(=O)c4c(Cl)cccc4Cl)cc3)C(=O)O)c2)cc1 [Example 54, (S)-2-{3-[2-Chloro-5-(toluene-4-sulfonyl)phenyl]ureido}-3-[4-(2,6-dichlorobenzoylamino)phenyl]propionic acid]	< 100
CN(C1CCCCC1)S(=O)(=O)c1ccccc1NC(=O)N[C@@H](Cc1ccc(NC(=O)c2c(Cl)cncc2Cl)cc1)C(=O)O [Example 66]	< 100
CN(C(=O)c1ccccc1NC(=O)N[C@@H](Cc1ccc(NC(=O)c2c(Cl)cncc2Cl)cc1)C(=O)O)C1CCCCC1 [Example 80]	< 100
CN(C(=O)N[C@@H](Cc1ccc(NC(=O)c2c(Cl)cncc2Cl)cc1)C(=O)O)c1ccccc1C(=O)N(C)C1CCCCC1 [Example 81]	< 100
CCCCCN(C(=O)N[C@@H](Cc1ccc(NC(=O)c2c(Cl)cncc2Cl)cc1)C(=O)O)c1ccccc1C(=O)N(C)C1CCCCC1 [Example 84]	< 100
CN(C(=O)c1ccccc1N(Cc1ccccc1)C(=O)N[C@@H](Cc1ccc(NC(=O)c2c(Cl)cncc2Cl)cc1)C(=O)O)C1CCCCC1 [Example 85]	< 100
CN(C(=O)c1ccccc1N(CC1CCCCC1)C(=O)N[C@@H](Cc1ccc(NC(=O)c2c(Cl)cncc2Cl)cc1)C(=O)O)C1CCCCC1 [Example 86]	< 100

Next, values leading:

IC50 [nM]	SMILES
< 100	O=C(Nc1cccnc1S(=O)(=O)c1ccccc1)N[C@@H](Cc1ccc(NC(=O)c2c(Cl)cccc2Cl)cc1)C(=O)O [Example 58, (S)-2-[3-(2-Benzenesulfonylpyridin-3-yl)ureido]-3-[4-(2,6-dichlorobenzoylamino)phenyl]propionic acid]
< 100	O=C(Nc1ccccc1S(=O)(=O)N1CCCCC1)N[C@@H](Cc1ccc(NC(=O)c2c(Cl)cncc2Cl)cc1)C(=O)O [Example 62, (S)-3-{4-[(3,5-Dichloropyridine-4-carbonyl)amino]phenyl}-2-{3-[2-(piperidine-1-sulfonyl)phenyl]ureido}propionic acid]
< 100	COc1ccc(OC)c(S(=O)(=O)c2ccc(Cl)cc2NC(=O)N[C@@H](Cc2ccc(NC(=O)c3c(Cl)cncc3Cl)cc2)C(=O)O)c1 [Example 64, (S)-2-{3-[5-Chloro-2-(2,5-dimethoxybenzenesulfonyl)phenyl]ureido}-3-{4-[(3,5-dichloropyridine-4-carbonyl)amino]phenyl}propionic acid]
< 100	O=C(Nc1cc(Cl)ccc1S(=O)(=O)c1ccccc1)N[C@@H](Cc1ccc(NC(=O)c2c(Cl)cncc2Cl)cc1)C(=O)O [Example 68, (S)-2-[3-(2-Benzenesulfonyl-5-chlorophenyl)ureido]-3-{4-[(3,5-dichloropyridine-4-carbonyl)amino]phenyl}propionic acid]
< 100	O=C(Nc1ccccc1S(=O)(=O)c1ccccc1)N[C@@H](Cc1ccc(NC(=O)c2c(Cl)cncc2Cl)cc1)C(=O)O [Example 70, (S)-2-[3-(2-Benzenesulfonylphenyl)ureido]-3-{4-[(3,5-dichloropyridine-4-carbonyl)amino]phenyl}propionic acid]
< 100	O=C(Nc1cccc(C(=O)c2ccccc2)c1)N[C@@H](Cc1ccc(NC(=O)c2c(Cl)cncc2Cl)cc1)C(=O)O [Example 77, (S)-3(4-{[1-(3,5-Dichloropyridin-4-yl)methanoyl]amino}phenyl)-2-{3-[3-(1-phenylmethanoyl)phenyl]ureido}propionic acid]
< 100	CN(C(=O)N[C@@H](Cc1ccc(NC(=O)c2c(Cl)cncc2Cl)cc1)C(=O)O)c1ccccc1Cc1ccccc1 [Example 79, (S)-2-[3-(2-Benzylphenyl)-3-methylureido]-3-(4-{[1-(3,5-dichloropyridin-4-yl)methandyl]amino}-phenyl)propionic acid]
< 100	CN(C(=O)N[C@@H](Cc1ccc(NC(=O)c2c(Cl)cncc2Cl)cc1)C(=O)O)c1ccccc1S(=O)(=O)N1CCCCC1 [Example 88, (S)-3-(4-{[1-(3,5-Dichloropyridin-4-yl)methyanoyl]amino}phenyl)-2-{3-methyl-3-[2-(piperidine-1-sulfonyl)phenyl]ureido}propionic acid.]
< 100	O=C(Nc1ccccc1S(=O)(=O)C1CCCC1)N[C@@H](Cc1ccc(NC(=O)c2c(Cl)cncc2Cl)cc1)C(=O)O [Example 92, (S)-2-[3-(2-Cyclopentanesulfonylphenyl)ureido]-3-(4-{[1-(3,5-dichloropyridin-4-yl)methanoyl]amino}phenyl)propionic acid]
< 100	CC(C)(C)S(=O)(=O)c1ccccc1NC(=O)N[C@@H](Cc1ccc(NC(=O)c2c(Cl)cncc2Cl)cc1)C(=O)O [Example 94, (S)-3-(4-{[1-(3,5-Dichloropyridin-4-yl)methanoyl]amino}phenyl)-2-{3-[2-(2-methylpropane-2-sulfonyl)phenyl]ureido}propionic acid]
< 100	Cc1csc2nc(Sc3ccccc3NC(=O)N[C@@H](Cc3ccc(NC(=O)c4c(Cl)cncc4Cl)cc3)C(=O)O)cnc12 [Example 96, (S)-3-(4-{[1-(3,5-Dichloropyridin-4-yl)methanoyl]amino}phenyl)-2-(3-[2-(7-methylthieno[2,3-b]pyrazin-3-ylsulfanyl)phenyl]ureido}propionic acid]
< 100	O=C(Nc1ccccc1Sc1c(Cl)cncc1Cl)N[C@@H](Cc1ccc(NC(=O)c2c(Cl)cncc2Cl)cc1)C(=O)O [Example 98, (S)-3-(4-{[1-(3,5-Dichloropyridin-4-yl)methanoyl]amino}phenyl)-2-{3-[2-(3,5-dichloropyridin-4-ylsulfanyl)phenyl]ureido}propionic acid]
< 100	Cc1ccc(C(=O)Nc2ccc(C[C@H](NC(=O)Nc3ccccc3S(=O)(=O)c3ccccc3)C(=O)O)cc2)c(Cl)n1 [Example 103, (S)-2-[3-(2-Benzenesulfonylphenyl)ureido]-3-(4-{[1-(2-chloro-6-methylpyridin-3-yl)methanoyl]amino}phenyl)propionic acid]
< 100	COc1cncc(OC)c1C(=O)Nc1ccc(C[C@H](NC(=O)Nc2ccccc2S(=O)(=O)c2ccccc2)C(=O)O)cc1 [Example 105, (S)-2-[3-(2-Benzenesulfonylphenyl)ureido]-3-(4-{[1-(3,5-dimethoxypyridin-4-yl)-methanoyl]amino}phenyl)propionic acid]
< 100	O=C(Nc1ccccc1S(=O)(=O)c1ccccc1)N[C@@H](Cc1ccc(NC(=O)c2c(Br)cncc2Br)cc1)C(=O)O [Example 106, (S)-2-[3-(2-Benzenesulfonylphenyl)ureido]-3-(4-{[1-(3,5-dibromopyridin-4-yl)-methanoyl]amino}phenyl)propionic acid]
< 100	O=C(Nc1ccccc1S(=O)(=O)c1ccccc1)N[C@@H](Cc1ccc(NCc2c(Cl)cncc2Cl)cc1)C(=O)O [Example 110, (S)-2-[3-(2-Benzenesulfonylphenyl)ureido]-3-{4-[(3,5-dichloropyridin-4-ylmethyl)amino]phenyl}propionic acid]
< 100	O=C(Nc1ccccc1S(=O)(=O)c1ccccc1)N[C@@H](Cc1ccc(OC(=O)c2c(Cl)cncc2Cl)cc1)C(=O)O [Example 116, 3,5-Dichloroisonicotinic acid 4-{(S)-2-[3-(2-benzenesulfonylphenyl)ureido]-2-carboxyethyl}phenyl ester]
